Assays:
TFEB = assay: High content screen measuring TFEB nuclear accumulation (TFEB nuclear/cytosol ratio) in BEAS-2B cells stably expressing TFEB-EGFP; assay type: cell-based, human; conditions: 18 hours incubation
How it was run: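 Readout: lowest compound concentration giving a 25% rise in nuclear/cytosol TFEB-GFP ratio, from DAPI-masked nuclear and mask-expanded cytosolic signals. Cells (BEAS-2B, TFEB-EGFP stable, ~2300–2500/well) rested 8 hours, then treated 18 hours with compound serial dilutions in 2% FBS medium before PFA fixation and DAPI staining.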

BEAS-2B cells = assay: Toxicity: compound concentration needed to induce greater than 50 percent of cell loss; assay type: cell-based, human; conditions: 18 hours incubation
How it was run: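 Reported value is the concentration giving greater than 50 percent cell loss, grouped into bins (≥25 μM; between 1 and 25 μM; ≤1 μM as "+++"). Measured by high-content imaging of DAPI-stained BEAS-2B TFEB-EGFP cells fixed after 18 h compound exposure.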

| Compound | efficacy (minimal compound concentration needed to increase TFEB nuclear/cytosol ratio by 25%) (TFEB) | toxicity (compound concentration needed to induce greater than 50 percent of cell loss) (BEAS-2B cells) |
| --- | --- | --- |
| Oc1ccc(-c2nc(Nc3cccc(F)c3)c3ccccc3n2)cc1 [Compound 65] | + (“+” equals >25 μM) | + (cell loss of greater than 50 percent at a concentration that equals or is greater than 25 μM was represented as) |
| [O-][n+]1ccc(-c2nc(Nc3ccc4[nH]ccc4c3)c3ccccc3n2)cc1 [Compound 66] | + (“+” equals >25 μM) | + (cell loss of greater than 50 percent at a concentration that equals or is greater than 25 μM was represented as) |
| c1ccc2c(Nc3ccc4[nH]ccc4c3)cc(-c3ccncc3)nc2c1 [Compound 67] | + (“+” equals >25 μM) | + (cell loss of greater than 50 percent at a concentration that equals or is greater than 25 μM was represented as) |
| c1ccc2c(Nc3ccc4[nH]ncc4c3)cc(-c3ccncc3)nc2c1 [Compound 68] | + (“+” equals >25 μM) | + (cell loss of greater than 50 percent at a concentration that equals or is greater than 25 μM was represented as) |
| Fc1cccc(Nc2cc(-c3ccncc3)nc3ccccc23)c1 [Compound 69] | + (“+” equals >25 μM) | + (cell loss of greater than 50 percent at a concentration that equals or is greater than 25 μM was represented as) |
| CC(=O)n1ccc2cc(Nc3nc(-c4ccncc4)nc4ccccc34)ccc21 [Compound 70] | +++ (“+++” equals ≤1 μM) | + (cell loss of greater than 50 percent at a concentration that equals or is greater than 25 μM was represented as) |
| Fc1cc(Nc2nc(-c3ccncc3)nc3ccccc23)cc2cc[nH]c12 [Compound 71] | +++ (“+++” equals ≤1 μM) | + (cell loss of greater than 50 percent at a concentration that equals or is greater than 25 μM was represented as) |
| CCN(c1ccc2[nH]ccc2c1)c1nc(-c2ccncc2)nc2ccccc12 [Compound 72] | +++ (“+++” equals ≤1 μM) | +++ (cell loss of greater than 50 percent at a concentration that equals or is less than 1 μM was represented as “+++.”) |
| c1ccc2c(Nc3ccc4[nH]c5c(c4c3)CCCC5)nc(-c3ccncc3)nc2c1 [Compound 73] | +++ (“+++” equals ≤1 μM) | +++ (cell loss of greater than 50 percent at a concentration that equals or is less than 1 μM was represented as “+++.”) |
| CC(C)(C)c1cc2cc(Nc3nc(-c4ccncc4)nc4ccccc34)ccc2[nH]1 [Compound 74] | +++ (“+++” equals ≤1 μM) | ++ (cell loss of greater than 50 percent at a concentration less than 25 μM and greater than 1 μM was represented as) |
| C1=C(c2nc(Nc3ccc4[nH]ncc4c3)c3ccccc3n2)CCNC1 [Compound 75] | + (“+” equals >25 μM) | + (cell loss of greater than 50 percent at a concentration that equals or is greater than 25 μM was represented as) |
| c1ccc2c(Nc3ccc4[nH]ncc4c3)nc(C3CCNCC3)nc2c1 [Compound 76] | + (“+” equals >25 μM) | + (cell loss of greater than 50 percent at a concentration that equals or is greater than 25 μM was represented as) |
| c1ccc2c(Nc3ccc4[nH]ncc4c3)nc(-c3cncs3)nc2c1 [Compound 77] | +++ (“+++” equals ≤1 μM) | + (cell loss of greater than 50 percent at a concentration that equals or is greater than 25 μM was represented as) |
| c1ccc2c(Nc3ccc4[nH]ccc4c3)nc(-c3cncs3)nc2c1 [Compound 78] | ++ (“++” equals between ≤25 μM and >1 μM) | + (cell loss of greater than 50 percent at a concentration that equals or is greater than 25 μM was represented as) |
| Fc1cccc(Nc2nc(-c3cncs3)nc3ccccc23)c1 [Compound 79] | + (“+” equals >25 μM) | + (cell loss of greater than 50 percent at a concentration that equals or is greater than 25 μM was represented as) |
| c1cnc2nc(-c3ccncc3)nc(Nc3ccc4[nH]ncc4c3)c2c1 [Compound 80] | ++ (“++” equals between ≤25 μM and >1 μM) | + (cell loss of greater than 50 percent at a concentration that equals or is greater than 25 μM was represented as) |
| c1cnc2nc(-c3ccncc3)nc(Nc3ccc4[nH]ccc4c3)c2c1 [Compound 81] | +++ (“+++” equals ≤1 μM) | ++ (cell loss of greater than 50 percent at a concentration less than 25 μM and greater than 1 μM was represented as) |
| Fc1cccc(Nc2nc(-c3ccncc3)nc3ncccc23)c1 [Compound 82] | +++ (“+++” equals ≤1 μM) | + (cell loss of greater than 50 percent at a concentration that equals or is greater than 25 μM was represented as) |
| c1cnc2c(Nc3ccc4[nH]ccc4c3)nc(-c3ccncc3)nc2c1 [Compound 83] | ++ (“++” equals between ≤25 μM and >1 μM) | + (cell loss of greater than 50 percent at a concentration that equals or is greater than 25 μM was represented as) |
| c1cc(-c2nc(Nc3ccc4[nH]ccc4c3)c3cnccc3n2)ccn1 [Compound 84] | +++ (“+++” equals ≤1 μM) | + (cell loss of greater than 50 percent at a concentration that equals or is greater than 25 μM was represented as) |
| c1cc(-c2nc(Nc3ccc4[nH]ncc4c3)c3cnccc3n2)ccn1 [Compound 85] | +++ (“+++” equals ≤1 μM) | + (cell loss of greater than 50 percent at a concentration that equals or is greater than 25 μM was represented as) |
| Cc1nc2cc(C)c(Nc3nc(-c4ccncc4)nc4ccccc34)cc2s1 [Compound 86] | +++ (“+++” equals ≤1 μM) | +++ (cell loss of greater than 50 percent at a concentration that equals or is less than 1 μM was represented as “+++.”) |
| N#Cc1nc2ccc(Nc3nc(-c4ccncc4)nc4ccccc34)cc2s1 [Compound 87] | + (“+” equals >25 μM) | + (cell loss of greater than 50 percent at a concentration that equals or is greater than 25 μM was represented as) |
| CC(C)(C)OC(=O)N1CC=C(c2nc(Nc3ccc4[nH]ccc4c3)c3ccccc3n2)CC1 [Compound 88] | + (“+” equals >25 μM) | + (cell loss of greater than 50 percent at a concentration that equals or is greater than 25 μM was represented as) |
| c1ccc2c(Nc3ccc4[nH]ncc4c3)nc(-c3cc[nH]c3)nc2c1 [Compound 89] | ++ (“++” equals between ≤25 μM and >1 μM) | ++ (cell loss of greater than 50 percent at a concentration less than 25 μM and greater than 1 μM was represented as) |
| CCc1nc2ccc(Nc3nc(-c4ccncc4)nc4ccccc34)cc2s1 [Compound 90] | +++ (“+++” equals ≤1 μM) | + (cell loss of greater than 50 percent at a concentration that equals or is greater than 25 μM was represented as) |
| c1ccc2c(Nc3ccc4nc(C5CC5)sc4c3)nc(-c3ccncc3)nc2c1 [Compound 91] | +++ (“+++” equals ≤1 μM) | + (cell loss of greater than 50 percent at a concentration that equals or is greater than 25 μM was represented as) |
| FC(F)c1nc2ccc(Nc3nc(-c4ccncc4)nc4ccccc34)cc2s1 [Compound 92] | ++ (“++” equals between ≤25 μM and >1 μM) | + (cell loss of greater than 50 percent at a concentration that equals or is greater than 25 μM was represented as) |
| CC(C)(C)c1nc2ccc(Nc3nc(-c4ccncc4)nc4ccccc34)cc2s1 [Compound 93] | + (“+” equals >25 μM) | + (cell loss of greater than 50 percent at a concentration that equals or is greater than 25 μM was represented as) |
| CC(C)c1nc2ccc(Nc3nc(-c4ccncc4)nc4ccccc34)cc2s1 [Compound 94] | +++ (“+++” equals ≤1 μM) | + (cell loss of greater than 50 percent at a concentration that equals or is greater than 25 μM was represented as) |

Reference: patent publication US12286442B2, “Methods and materials for increasing transcription factor eb polypeptide levels” (University of Pittsburgh—Of the Commonwealth System of …, priority 2019, dated 2025)
